# In PubChem BioAssay (NCI):
#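 Protocol summary: plate cells (96-well), add compound at 5 concentrations, incubate 48 h, interpolate endpoints linearly. TGI is the concentration that stops growth completely.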
# Key:
# Assay in all cases: NCI tumour cell line growth inhibition, 48 h
# HCT-116 colon = test system: HCT-116 colon
# HS 578T breast = test system: HS 578T breast
# IGROV1 ovarian = test system: IGROV1 ovarian
# OVCAR-5 ovarian = test system: OVCAR-5 ovarian
# DLD-1 colon = test system: DLD-1 colon
# DMS 114 small cell lung = test system: DMS 114 small cell lung
# HOP-18 NSCLC = test system: HOP-18 NSCLC
# KM20L2 colon = test system: KM20L2 colon
# LXFL 529 NSCLC = test system: LXFL 529 NSCLC
# M19-MEL melanoma = test system: M19-MEL melanoma
# SNB-78 CNS = test system: SNB-78 CNS
# XF 498 CNS = test system: XF 498 CNS
SMILES,TGI (HCT-116 colon) [µM],TGI (HS 578T breast) [µM],TGI (IGROV1 ovarian) [µM],TGI (OVCAR-5 ovarian) [µM],other results
CCCCCCCCCCCCCCCCCCNc1ccn(C2OC(CO)C(O)C2O)c(=O)n1 (stereo not given),> 100,> 100,> 92.2,> 100,–
COc1ccc(C(=O)c2sc(Nc3ccccc3)nc2N)cc1,–,> 100,> 100,> 100,–
CC1=C(O)C(=O)C[C@]2(C)[C@H]3CC=C4[C@@H]5CC(C)(C)CC[C@@H]5C(=O)[C@H](O)[C@@]4(C)[C@]3(C)CC[C@@H]12,> 50,> 50,> 50,> 50,–
CN1CCN(c2cc3c(cc2F)c(=O)c(C(=O)O)cn3C2CC2)CC1CC#N (stereo not given),> 100,–,> 100,> 100,–
COC(=O)[C@@H](O)[C@]1(C(=O)OC)C2O[C@@H](OC)[C@@H]1CCCCCC[C@H]2O,> 100,> 100,> 100,> 100,–
COC(=O)C12OC(C)(C(CC(=O)OC(C)(C)C)C1=O)C1C(=O)N(c3ccccc3)C(=O)C12 (stereo not given),> 100,> 100,> 100,> 100,–
Cc1cc(NC(=O)NC(=O)c2ccccc2N)ccc1Oc1ncc(Br)cn1,8.15,–,24,> 100,TGI (DLD-1 colon): > 47.9 µM; TGI (DMS 114 small cell lung): 20.9 nM; TGI (HOP-18 NSCLC): > 78 µM; TGI (KM20L2 colon): 442 nM; TGI (LXFL 529 NSCLC): > 57.2 µM; TGI (M19-MEL melanoma): > 100 µM; TGI (SNB-78 CNS): > 100 µM; TGI (XF 498 CNS): 67.6 µM
C=CCOC1=C(OCC=C)C(C2COC(C)(C)O2)OC1=O (stereo not given),> 100,> 100,> 100,> 100,–
O=C(c1ccco1)n1c2ccc(Br)cc2c2nc3ccccc3nc21,> 100,–,> 100,> 100,–
CC(=O)CCC(=O)C(=[N+]=[N-])S(=O)(=O)c1ccccc1,> 100,> 100,> 100,> 100,–
CCOC(=O)NC(C(=O)OCC)C(F)(F)F (stereo not given),> 100,> 100,> 100,> 100,–
O=c1c2c(c1=O)C1(SCCCS1)c1cc(Cl)ccc1O2,> 100,–,> 100,> 100,–
C=CCOc1ccc(/C(N=Nc2ccccc2)=N/NC(=O)c2ccccc2)cc1OC,> 100,> 100,> 100,> 100,–
Cc1ccc(S(=O)(=O)NNC(=O)c2sc(-c3nc(C)c(C(=O)NNS(=O)(=O)c4ccc(C)cc4)s3)nc2C)cc1,> 100,–,> 100,> 100,TGI (DLD-1 colon): > 100 µM; TGI (KM20L2 colon): > 100000 nM; TGI (LXFL 529 NSCLC): > 100 µM; TGI (M19-MEL melanoma): > 100 µM; TGI (SNB-78 CNS): > 100 µM
C=C(C(=O)O)C1CCC(CC/C=C(\C)CC/C=C(\C)CCC=C(C)C)CO1 (stereo not given),17.8,> 100,39.3,35.7,–
CCOC(=O)c1cc(C2CCN(CC(C)CC)C2=S)c(-c2cc(C)no2)[nH]1 (stereo not given),> 100,> 100,> 100,> 100,–
CC(=O)O[C@@H]1[C@H]2[C@@H](OC(=O)c3ccccc3)[C@@H](C)C[C@]2(O)[C@H](OC(C)=O)[C@@]2(C)[C@@H]3CC(C)(C)C(=O)[C@]3(OC(C)=O)C[C@@]12C,> 25,> 25,> 25,> 25,–
C=CC(C)(C)C(=C)C(=O)N(C)c1ccccc1I,> 100,> 100,–,> 100,–

SMILES,TGI (HCT-116 colon) [µM],TGI (HS 578T breast) [µM],TGI (IGROV1 ovarian) [µM],TGI (OVCAR-5 ovarian) [µM],other results
c1ccc(-c2ccc(-c3cc4ccccc4[nH]3)cc2)cc1,> 100,> 100,> 100,> 100,–
N#CCC(=O)c1cc(OCc2cc(OCc3ccc(Br)cc3)cc(OCc3ccc(Br)cc3)c2)cc(OCc2cc(OCc3ccc(Br)cc3)cc(OCc3ccc(Br)cc3)c2)c1,> 100,–,–,> 100,–
C#CCOCn1ccc(=O)[nH]c1=O,> 100,> 100,> 100,> 100,–
C/C(=N\Nc1ccccc1Br)c1cccc(/C(C)=N/Nc2ccccc2Br)n1,> 100,–,> 100,> 100,–
O=C1C=CC(=O)c2c(NCC3CC3)ccc(NCC3CC3)c21,> 100,> 100,> 100,> 100,–
CCOP1(=O)C=C(Sc2ccc([N+](=O)[O-])cc2[N+](=O)[O-])C(C)(C)O1 (stereo not given),18.8,> 78.8,30.4,43.4,–
COc1ccc(-c2cc(-c3ccc(Nc4ccnc5cc(Cl)ccc45)cc3)nc(N)c2C#N)cc1,> 100,–,> 100,> 100,–
COc1cc(NCc2ccc3nc(-c4ccccc4)c(N)nc3c2)cc(OC)c1OC,33.7,–,> 100,> 100,–
OCC1OC(NCCNCCNC2OC(CO)C(O)C(O)C2O)C(O)C(O)C1O (stereo not given),> 100,> 100,> 100,> 100,–
CCCc1c(O)c(=O)c2c(OC)cc(OC)c3c4c(OC)cc(OC)c5c(=O)c(O)c(CCC)c(c1c23)c54,1.23,72.2,3.97,19.4,–
COc1ccc(C(=O)/C=C/c2ccc(OCCSCCCCCCCCCCSCCOc3ccc(/C=C/C(=O)c4ccc(OC)cc4)cc3)cc2)cc1,> 100,> 100,> 100,–,–
O=C1CCCCC1=C(I)I,30.9,> 100,30.4,31.6,–
CC(C)C1OC2(C)OC(=N)C1(C#N)C(C#N)(C#N)C2C (stereo not given),78.2,69.4,–,71.1,–
NC1CC(N)c2c(Br)sc(Br)c21 (stereo not given),> 100,> 100,> 100,> 100,–
Cc1cnc(/N=c2\sc(C)cn2-c2ncc(C)s2)s1,> 100,> 100,> 100,> 100,–
CCOP(=O)(OCC)/C(C#N)=C/c1ccc(-c2ccc(F)cc2F)o1,32.3,–,34.6,31.7,–
CCN(CCCN(CC)C(=O)Nc1ccccc1)C(=O)Nc1ccccc1,> 100,–,> 100,> 100,–
CCOP(=O)(OCC)C(Nc1cccc([N+](=O)[O-])c1)c1ccccc1 (stereo not given),> 100,–,25.5,> 100,–
